Experimental data reported in patent US20060069132A1, “Azolecarboxamide herbicides” (priority 2004, published 2006).

Tests used:
[1] = test system: barnyardgrass; assay: Test B pre-/postemergence herbicide test; format: in vivo, Echinochloa crus-galli; details: for Plant response rating (0 to 100 scale), Barnyardgrass: 0 is no effect, 100 is complete control, preemergence; for Barnyardgrass plant response rating: Postemergence, scale 0 (no effect) to 100 (complete control)
How it was run: (§1)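 Species tested were Echinochloa crus-galli, Ipomoea coccinea, Xanthium strumarium and Oryza sativa, treated both before emergence and at the 1- to 4-leaf stage; rice and barnyardgrass were also tested under flooding at 2 leaves. Greenhouse incubation lasted 13–15 days before visual 0–100 scoring.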

[2] = test system: Surinam grass; assay: Test B pre-/postemergence herbicide test; format: in vivo, Urochloa decumbens; details: for Plant response rating (0 to 100 scale), Surinam Grass: 0 is no effect, 100 is complete control, preemergence
How it was run: (§2)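 Response was scored visually 13 to 15 days after treatment against untreated greenhouse controls, 0 meaning no effect and 100 complete control. Formulations (solvent mixture plus surfactant) went onto soil after planting, onto foliage of 1- to 4-leaf plants, and onto 2-leaf plants in a flooded paddy set including rice and barnyardgrass.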

[3] = test system: cocklebur; assay: Test B pre-/postemergence herbicide test; format: in vivo, Xanthium strumarium; details: for Plant response rating (0 to 100 scale), Cocklebur: 0 is no effect, 100 is complete control, preemergence
How it was run: as §1

[4] = test system: corn; assay: Test B pre-/postemergence herbicide test; format: in vivo, Zea mays; details: for Plant response rating (0 to 100 scale), Corn: 0 is no effect, 100 is complete control, preemergence
How it was run: as §2

[5] = test system: large crabgrass; assay: Test B pre-/postemergence herbicide test; format: in vivo, Digitaria sanguinalis; details: for Plant response rating (0 to 100 scale), Crabgrass, Large: 0 is no effect, 100 is complete control, preemergence
How it was run: as §2

[6] = test system: giant foxtail; assay: Test B pre-/postemergence herbicide test; format: in vivo, Setaria faberi; details: for Plant response rating (0 to 100 scale), Foxtail, Giant: 0 is no effect, 100 is complete control, preemergence
How it was run: as §2

[7] = test system: lambsquarters; assay: Test B pre-/postemergence herbicide test; format: in vivo, Chenopodium album; details: for Plant response rating (0 to 100 scale), Lambsquarters: 0 is no effect, 100 is complete control, preemergence
How it was run: as §2

[8] = test system: morningglory; assay: Test B pre-/postemergence herbicide test; format: in vivo, Ipomoea coccinea; details: for Plant response rating (0 to 100 scale), Morningglory: 0 is no effect, 100 is complete control, preemergence
How it was run: as §1

[9] = test system: pigweed; assay: Test B pre-/postemergence herbicide test; format: in vivo, Amaranthus retroflexus; details: for Plant response rating (0 to 100 scale), Pigweed: 0 is no effect, 100 is complete control, preemergence
How it was run: as §2

[10] = test system: velvetleaf; assay: Test B pre-/postemergence herbicide test; format: in vivo, Abutilon theophrasti; details: for Plant response rating (0 to 100 scale), Velvetleaf: 0 is no effect, 100 is complete control, preemergence
How it was run: as §2

[11] = test system: blackgrass; assay: Test B postemergence herbicide test; format: in vivo, Alopecurus myosuroides
How it was run: (§3)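 Plants grow to 1- to 4-leaf stage (2–18 cm) for postemergence spraying, or to 2-leaf stage for the paddy test. Formulated compound is applied. Greenhouse holding lasts 13–15 days. Response is scored visually relative to controls, 0 no effect to 100 complete control; a dash means no result.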

[12] = test system: wheat; assay: Test B postemergence herbicide test; format: in vivo, Triticum aestivum; parameters: key to Wheat plant response rating: 0 = no effect, 100 = complete control
How it was run: (§4)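 Treated at 2-leaf (paddy) or 1–4-leaf, 2–18 cm (postemergence); greenhouse 13–15 d; visual score vs control, 0 none to 100 complete control; dash = not tested.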

[13] = test system: wild oat; assay: Test B postemergence herbicide test; format: in vivo, Avena fatua
How it was run: as §4

[14] = test system: rice; assay: Test B flooded paddy test; format: in vivo, Oryza sativa; details: scale 0 to 100 (0 no effect, 100 complete control)
How it was run: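 Postemergence plants were sprayed with formulated test chemicals at 2 to 18 cm height (1- to 4-leaf stage); paddy species were grown to the 2-leaf stage. After 13 to 15 days in a greenhouse, injury was rated visually against untreated controls on a 0–100 scale (0 = no effect, 100 = complete control).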

[15] = test system: small flower umbrella sedge; assay: Test B flooded paddy test; format: in vivo, Cyperus difformis; details: scale 0 to 100 (0 no effect, 100 complete control)
How it was run: as §3

[16] = test system: ducksalad; assay: Test B flooded paddy test; format: in vivo, Heteranthera limosa; details: scale 0 to 100 (0 no effect, 100 complete control)
How it was run: as §3

[17] = test system: barnyardgrass; assay: Test B flooded paddy test; format: in vivo, Echinochloa crus-galli; details: scale 0 to 100 (0 no effect, 100 complete control)
How it was run: as §3

[18] = Postemergence, 500 g ai/ha, scale 0 (no effect) to 100 (complete control)
[19] = postemergence, 125 g ai/ha, scale 0 to 100
[20] = 500 g ai/ha, scale 0 to 100, 0 no effect, 100 complete control, preemergence

SMILES: Cc1nn(C(C)(C)C)nc1C(=O)Nc1cncc(C(=O)N(C)C)c1 [Compound 426]
- Plant response rating (0 to 100 scale), Barnyardgrass ([1]; 125 g ai/ha): 10
- Barnyardgrass plant response rating ([1]; 125 g ai/ha): 0
- Barnyardgrass plant response rating ([1]; 500 g ai/ha): 20
- Plant response rating (0 to 100 scale), Surinam Grass ([2]; 125 g ai/ha): 10
- Surinam Grass plant response rating [2, 18]: 20
- Surinam Grass plant response rating [2, 19]: 10
- Plant response rating (0 to 100 scale), Cocklebur ([3]; 125 g ai/ha): 0
- Cocklebur plant response rating [3, 18]: 20
- Cocklebur plant response rating [3, 19]: 10
- Plant response rating (0 to 100 scale), Corn ([4]; 125 g ai/ha): 0
- Corn plant response rating [4, 18]: 10
- Corn plant response rating [4, 19]: 10
- Plant response rating (0 to 100 scale), Crabgrass, Large ([5]; 125 g ai/ha): 70
- Crabgrass, Large plant response rating [5, 18]: 20
- Crabgrass, Large plant response rating [5, 19]: 10
- Plant response rating (0 to 100 scale), Foxtail, Giant ([6]; 125 g ai/ha): 0
- Foxtail, Giant plant response rating [6, 18]: 30
- Foxtail, Giant plant response rating [6, 19]: 20
- Plant response rating (0 to 100 scale), Lambsquarters ([7]; 125 g ai/ha): 40
- Lambsquarters plant response rating [7, 18]: 50
- Lambsquarters plant response rating [7, 19]: 20
- Plant response rating (0 to 100 scale), Morningglory ([8]; 125 g ai/ha): 0
- Morningglory plant response rating [8, 18]: 50
- Morningglory plant response rating [8, 19]: 20
- Plant response rating (0 to 100 scale), Pigweed ([9]; 125 g ai/ha): 50
- Pigweed plant response rating [9, 18]: 50
- Pigweed plant response rating [9, 19]: 30
- Plant response rating (0 to 100 scale), Velvetleaf ([10]; 125 g ai/ha): 10
- Velvetleaf plant response rating [10, 18]: 40
- Velvetleaf plant response rating [10, 19]: 30
- Blackgrass plant response rating [11, 18]: 0
- Blackgrass plant response rating [11, 19]: 0
- Wheat plant response rating [12, 20]: 10
- Wheat plant response rating [12, 18]: 0
- Wheat plant response rating [12, 19]: 0
- Oat, Wild plant response rating [13, 18]: 0
- Oat, Wild plant response rating [13, 19]: 0
- Rice plant response rating ([14]; 1000 g ai/ha): 0
- Sedge, Umbrella plant response rating ([15]; 1000 g ai/ha): 70
- Ducksalad plant response rating ([16]; 1000 g ai/ha): 70
- Barnyardgrass plant response rating ([17]; 1000 g ai/ha): 0

SMILES: CC(C)(C)n1nc(Br)c(C(=O)Nc2cccc(C(=O)N3CC=CC3)c2)n1 [Compound 433]
- Plant response rating (0 to 100 scale), Barnyardgrass ([1]; 125 g ai/ha): 50
- Barnyardgrass plant response rating ([1]; 125 g ai/ha): 10
- Barnyardgrass plant response rating ([1]; 500 g ai/ha): 20
- Plant response rating (0 to 100 scale), Surinam Grass ([2]; 125 g ai/ha): 20
- Surinam Grass plant response rating [2, 18]: 30
- Surinam Grass plant response rating [2, 19]: 20
- Plant response rating (0 to 100 scale), Cocklebur ([3]; 125 g ai/ha): 10
- Cocklebur plant response rating [3, 18]: 90
- Cocklebur plant response rating [3, 19]: 40
- Plant response rating (0 to 100 scale), Corn ([4]; 125 g ai/ha): 10
- Corn plant response rating [4, 18]: 30
- Corn plant response rating [4, 19]: 20
- Plant response rating (0 to 100 scale), Crabgrass, Large ([5]; 125 g ai/ha): 90
- Crabgrass, Large plant response rating [5, 18]: 30
- Crabgrass, Large plant response rating [5, 19]: 20
- Plant response rating (0 to 100 scale), Foxtail, Giant ([6]; 125 g ai/ha): 60
- Foxtail, Giant plant response rating [6, 18]: 40
- Foxtail, Giant plant response rating [6, 19]: 30
- Plant response rating (0 to 100 scale), Lambsquarters ([7]; 125 g ai/ha): 70
- Lambsquarters plant response rating [7, 18]: 80
- Lambsquarters plant response rating [7, 19]: 40
- Plant response rating (0 to 100 scale), Morningglory ([8]; 125 g ai/ha): 40
- Morningglory plant response rating [8, 18]: 80
- Morningglory plant response rating [8, 19]: 50
- Plant response rating (0 to 100 scale), Pigweed ([9]; 125 g ai/ha): 100
- Pigweed plant response rating [9, 18]: 70
- Pigweed plant response rating [9, 19]: 50
- Plant response rating (0 to 100 scale), Velvetleaf ([10]; 125 g ai/ha): 40
- Velvetleaf plant response rating [10, 18]: 50
- Velvetleaf plant response rating [10, 19]: 10
- Blackgrass plant response rating [11, 18]: 40
- Blackgrass plant response rating [11, 19]: 30
- Wheat plant response rating [12, 20]: 50
- Wheat plant response rating [12, 18]: 50
- Wheat plant response rating [12, 19]: 40
- Oat, Wild plant response rating [13, 18]: 60
- Oat, Wild plant response rating [13, 19]: 50
- Rice plant response rating ([14]; 125 g ai/ha): 0
- Sedge, Umbrella plant response rating ([15]; 125 g ai/ha): 70
- Ducksalad plant response rating ([16]; 125 g ai/ha): 60
- Barnyardgrass plant response rating ([17]; 125 g ai/ha): 30
